PMC6160931, “Processing Impact on Performance of Solid Dispersions” (Pharmaceutics, 2018)
Values after ≈ are worked out from the molar mass of the structure shown. Where a name gives a salt, the structure may show the parent alone. Read-outs that look alike come from different tables or passages of the source.

Legend:
Assay type in all cases: physicochemical
[1] = Solid-state chemical/physical stability of drug forms; conditions: chemical and physical
Description: (§1) Table 1 Physical/chemical properties of MK-A.

Log P (free base) = assay: Log P (free base)
Description: as §1

[2] = Solubility in H2O, SGF and FaSSIF
Description: as §1

[3] = Chemical stability under accelerated conditions (% area)
Method: The stability of various formulations of MK-A was evaluated under accelerated conditions (Table 4). Levels of potency reduction right after the solid dispersion preparation were 1.7% and 4.6% for spray drying and hot melt extrusion, respectively. The higher potency reduction in HME was attributed to the higher processing temperature of the HME process (~140 °C) at which thermal degradation of the drug occurred. The potency of the amorphous form of active was further reduced after 2 weeks storage at 40 °C/75% relative humidity (RH) conditions in closed glass vials by up to as much as 8.5% loss of potency in the solid dispersion via HME.

[4] = Fasted Simulated Small Intestine Fluid (FaSSIF)

Row | Log P (free base) (Log P (free base)) | solubility [2, 4] [µg/mL] | solubility ([2]; Simulated Gastric Fluid (SGF)) [µg/mL] | solubility ([2]; water, pH 7.3, water, H2O (pH = 7.3), read-out: Solubility) [µg/mL] | 2 Weeks at 40 °C/75% RH Closed (% Area) ([3]; 2 weeks, 40 °C/75% RH, closed glass vials) | Initial (% Area) ([3]; initial, after preparation) | logP (Log P (free base)) | solubility ([2]; simulated gastric fluid (SGF), simulated gastric fluid, Simulated Gastric Fluid (SGF), read-out: Solubility) [µg/mL] | solubility ([2]; water, pH 3.5, water, H2O (pH = 3.5), read-out: Solubility) [µg/mL] | SMILES | Stability [1]
1 | 4.5 | 2 (≈ 2.89 µM) | 907 (≈ 1310 µM) | 0.3 (≈ 0.434 µM) | 98.8 | 98.8 |  |  |  | CS[C@@]1(C(=O)Nc2ccc3[nH]nc(-c4ccc(OC(C)C)nc4)c3c2)CCN(CC(=O)N2CC=C(c3ccc(-c4ncn(C)n4)cc3)CC2)C1 [MK-A free base] | Chemically and physically stable
2 |  | 21 |  |  |  |  | 4.5 | 525 | 661 | CS[C@@]1(C(=O)Nc2ccc3[nH]nc(-c4ccc(OC(C)C)nc4)c3c2)CCN(CC(=O)N2CC=C(c3ccc(-c4ncn(C)n4)cc3)CC2)C1 [MK-A HCl salt] | Chemically stable in the solid-state; Physically stable at various temperatures and humidity conditions but sensitive to mechanical stress
